Test system: fire ants
Assay: fire ant kill test: time to death of all fire ants in a jar coated with dried insecticide composition
Assay type: in vivo
Experimental: In this example a series of commercially available insecticides were tested at various dilution levels and with and without a preferred copolymer, namely the AVAIL® copolymer previously described (a 40%-60% w/w aqueous composition of a saturated sodium salt of a maleic anhydride/itaconic acid copolymer in water). In each set of test runs, the selected insecticide was tested with a population of fire ants in order to determine the time required to kill the entire population.
In particular, in each test run 20 ml of the respective liquid insecticide composition was added to a mason jar and swirled around the inside bottom thereof. The liquid was then poured off and the remainder was allowed to dry on the inner jar surface, creating substantially a monomeric dried layer. The outside neck surface of the jar was then coated in talc, and the open end of the jar was placed into a fire ant nest. The talc coating prevented the aggressive fire ants from climbing the outer surface of the jar. A population of fire ants was thus established in each jar, and the jar was then topped with an apertured mason jar cap. The time to death of all of the fire ants was then recorded.
In each case, the recommended concentration of insecticide was prepared (recorded as “1×”), followed by dilutions with water to create the diluted compositions. Where copolymer was used, the copolymer was added to the insecticide with gentle mixing, at a level of 30 ml per gallon. If desired, lesser amounts of copolymer could be used, e.g., 20 ml per gallon.
In another series of tests, insecticides were tested with various copolymers having different ratios of maleic anhydride and itaconic acid moieties, and at different pH levels. In particular, respective copolymeric compositions were prepared made up ofpolymaleic acid, a 1:3 weight ratio of maleic anhydride to itaconic acid, a 1:1 weight ratio of maleic anhydride to itaconic acid, a 3:1 weight ratio of maleic anhydride to itaconic acid, and a 7:1 weight ratio of maleic anhydride to itaconic acid. Individual portions of each of these copolymers were then pH-modified using sodium hydroxide to provide, for each copolymer, portions with no pH adjustment, and with adjustment to pHs of 6, 7, and 8. These pH-modified test copolymers were then mixed with a 1/100× dilution of malathion at a level of 30 ml of copolymer per gallon of insecticide. Similarly, the same pH-adjusted copolymers were mixed with 1/20× water dilutions of permethrin, again at a level of 30 ml of copolymer per gallon of insecticide.
The test products were then used in the same fire ant kill experiment of Example 1, giving the data of Tables 2 and 3.

[1] = Table 1, insecticide at 1/20X dilution, copolymer, where used, 30 ml per gallon
[2] = Table 1, insecticide at 1/10X dilution
[3] = Table 1, insecticide at 1X (recommended concentration), time to kill entire fire ant population

| SMILES | TIME TO DEATH [1] | effect of the copolymer on kill time as compared with the insecticide itself (insecticide with copolymer vs insecticide alone) | TIME TO DEATH [2] | TIME TO DEATH (Table 1, insecticide at 1/100X dilution, copolymer, where used, 30 ml per gallon) | TIME TO DEATH [3] | TIME TO DEATH (Table 2, 1/100X malathion, copolymer 30 ml per gallon, no pH adjustment (pH —)) | TIME TO DEATH (Table 1, insecticide at ⅓X dilution) |
| --- | --- | --- | --- | --- | --- | --- | --- |
| Cc1c(COC(=O)[C@H]2[C@@H](/C=C(\Cl)C(F)(F)F)C2(C)C)cccc1-c1ccccc1 (stereo in doubt) [bifenthrin, (2-methyl-3-phenylphenyl) methyl (1S,3S)-3-[(Z)-2-chloro-3,3,3-trifluoroprop-1-enyl]-2,2-dimethylcyclopropane-1-carboxylate] | 15 min |  |  |  |  |  |  |
| CCOP(=S)(OCC)Oc1cc(C)nc(C(C)C)n1 [Diazinon®] |  | no decrease in kill times |  |  |  |  |  |
| CCOC(=O)CC(SP(=S)(OC)OC)C(=O)OCC (centres unmarked) [malathion, 2-(dimethoxyphosphinothioylthio) butanedioic acid diethyl ester] | 5 min |  | 2 min | 30 min | 1 min | 14 min |  |
| CC1(C)C(C=C(Cl)Cl)C1C(=O)OCc1cccc(Oc2ccccc2)c1 (centres unmarked) [permethrin, (3-phenoxyphenyl) methyl 3-(2,2-dichloroethenyl)-2,2-dimethyl-cyclopropane-1-carboxylate] | 20 min |  | 5 min |  | 5 min |  | 5 min |
